In one assay the test system is Aphis fabae. Kind of assay: Test against aphid, leaf dip method (Aphis fabae). It counts as in vivo. As to conditions: foliar; for mortality at 12.5 µg/mL: 12.5 mg/L; for mortality at 12.5 µg/mL / mortality at 50 µg/mL / mortality at 200 µg/mL / mortality at 500 µg/mL: after 24 hours, read-out: Activity (mortality) level against Aphis fabae; for mortality at 50 µg/mL: 50 mg/L; for mortality at 200 µg/mL: 200 mg/L; for mortality at 500 µg/mL: 500 mg/L. The protocol: For evaluating the activity of the compounds of this invention against Homoptera pests, Aphis fabae, wheat aphids, etc. were selected as the test insects, and the activity of the compounds of this invention against aphids was measured by leaf dip method indoors.
Leaf dip method (Aphis fabae): the test compound was dissolved in an appropriate solvent such as N,N-dimethylformamide, and then diluted with 0.2% aqueous solution of Tween 80 to the desired concentration, Those without the test compounds were set as blank controls, the treatments were replicated 3 times. Horsebean seedlings with no less than twenty 3-day-old Aphis fabae per plant was cut from the stem, 5 horsebean seedlings with the insects were dipped in the test solution for 5 seconds, then inserted into a sponge filled with water after sucked dry using filter paper, then covered with a glass tube and placed in a chamber for culture. After 24 hours, the number of living and dead insects were investigated and the results were averaged. […]

Assay [1] deals with Armyworm (Mythimna separata (Walker)). Kind of assay: Test against armyworm, Potter tower method. Format: in vivo. Conditions: for mortality at 12.5 µg/mL / mortality at 50 µg/mL / mortality at 500 µg/mL: Mythimna separata, third-instar larvae, after 72 hours, read-out: Activity (mortality) level against armyworm; for mortality at 12.5 µg/mL: 12.5 mg/L; for mortality at 50 µg/mL: 50 mg/L; for mortality at 500 µg/mL: 500 mg/L; for Activity against armyworm, further screening (in words): compared with chlorantraniliprole (D1). As to the method: Potter tower method: the test compound was dissolved in an appropriate solvent such as N,N-dimethylformamide, and then diluted with 0.2% aqueous solution of Tween 80 to the desired concentration, Those without the test compounds were set as blank controls. The fresh and tender corn leaves were taken and cut into fragments of basically the same size, then put into a Petri dish (diameter 90 mm) padded with filter paper in advance. Ten third-instar larvae of test insects were transferred into the dish and then placed under the Potter spray tower for being sprayed, each concentration treatment was sprayed at the amount of 1 mL and replicated 3 times. The dish was covered and then placed in a chamber for culture and observed regularly, after 72 hours, the dead insects was investigated and recorded and the mean mortality was calculated. […]

By mortality is commonly meant the percentage killed. As usually defined, the LC50 is the concentration lethal to half of the exposed cells or organisms.

Consider `CCCNC(=O)c1cc(Cl)cc(Cl)c1N(C)C(=O)c1cc(Br)nn1-c1ncccc1Cl` [Compound 3, N-[2,4-dichloro-6-[(propylamino)carbonyl]phenyl]-N-methyl-1-(3-chloro-2-pyridinyl)-3-bromo-1H-pyrazole-5-carboxamide], for which, in the assay on Aphis fabae, the mortality at 12.5 µg/mL lay within 90 to 100%, the mortality at 50 µg/mL was in the range of 90 to 100%, the mortality at 200 µg/mL was 90 to 100% and the mortality at 500 µg/mL was in the range of 90 to 100%. Also, in assay [1], the mortality at 12.5 µg/mL fell in the range of 90 to 100%, the mortality at 50 µg/mL was in the range of 90 to 100% and the mortality at 500 µg/mL lay within 90 to 100%.

For the molecule `CC(C)NC(=O)c1cc(Cl)cc(Cl)c1N(C)C(=O)c1cc(Br)nn1-c1ncccc1Cl` [Compound 5, N-[2,4-dichloro-6-[(isopropylamino)carbonyl]phenyl]-N-methyl-1-(3-chloro-2-pyridinyl)-3-bromo-1H-pyrazole-5-carboxamide], in the assay with Aphis fabae, the mortality at 12.5 µg/mL was 90 to 100%, the mortality at 50 µg/mL is 90 to 100%, the mortality at 200 µg/mL lay within 90 to 100% and the mortality at 500 µg/mL is 90 to 100%. In assay [1], the mortality at 12.5 µg/mL was in the range of 90 to 100%; the mortality at 50 µg/mL was 90 to 100%; the mortality at 500 µg/mL was 90 to 100%; the “Activity against armyworm, further screening (in words)” value is listed as “excellent activity”.

`CN(C(=O)c1cc(Br)nn1-c1ncccc1Cl)c1c(Cl)cc(Cl)cc1C(=O)NC1CC1` [Compound 6, N-[2,4-dichloro-6-[(cyclopropylamino)carbonyl]phenyl]-N-methyl-1-(3-chloro-2-pyridinyl)-3-bromo-1H-pyrazole-5-carboxamide]: in the assay on Aphis fabae, the mortality at 12.5 µg/mL lay in the range of 90 to 100%, the mortality at 50 µg/mL was 90 to 100%, the mortality at 200 µg/mL was in the range of 90 to 100% and the mortality at 500 µg/mL is 90 to 100%. Further, in assay [1], the mortality at 12.5 µg/mL is 90 to 100%, the mortality at 50 µg/mL lay in the range of 90 to 100% and the mortality at 500 µg/mL lay within 90 to 100%.

Take `CCCCNC(=O)c1cc(Cl)cc(Cl)c1N(C)C(=O)c1cc(Br)nn1-c1ncccc1Cl` [Compound 7, N-[2,4-dichloro-6-[(butylamino)carbonyl]phenyl]-N-methyl-1-(3-chloro-2-pyridinyl)-3-bromo-1H-pyrazole-5-carboxamide]: in the assay on Aphis fabae, the mortality at 50 µg/mL lay in the range of 90 to 100%, the mortality at 200 µg/mL fell in the range of 90 to 100% and the mortality at 500 µg/mL was 90 to 100%. In assay [1], the mortality at 50 µg/mL is 90 to 100% and the mortality at 500 µg/mL lay in the range of 90 to 100%.

`CC(C)N(C)C(=O)c1cc(Cl)cc(Cl)c1N(C)C(=O)c1cc(Br)nn1-c1ncccc1Cl` [Compound 13, N-[2,4-dichloro-6-[(methyl(isopropyl)amino)carbonyl]phenyl]-N-methyl-1-(3-chloro-2-pyridinyl)-3-bromo-1H-pyrazole-5-carboxamide]: in the assay with Aphis fabae, the mortality at 12.5 µg/mL was 90 to 100%, the mortality at 50 µg/mL fell in the range of 90 to 100%, the mortality at 200 µg/mL is 90 to 100% and the mortality at 500 µg/mL was in the range of 90 to 100%. In addition, in assay [1], the mortality at 50 µg/mL lay in the range of 90 to 100% and the mortality at 500 µg/mL was in the range of 90 to 100%.

In the case of `CN(C(=O)c1cc(Br)nn1-c1ncccc1Cl)c1c(Cl)cc(Cl)cc1C(=O)N(C)C1CC1` [Compound 14, N-[2,4-dichloro-6-[(methyl(cyclopropyl)amino)carbonyl]phenyl]-N-methyl-1-(3-chloro-2-pyridinyl)-3-bromo-1H-pyrazole-5-carboxamide], in the assay on Aphis fabae, the mortality at 12.5 µg/mL fell in the range of 90 to 100%, the mortality at 50 µg/mL was in the range of 90 to 100%, the mortality at 200 µg/mL lay within 90 to 100% and the mortality at 500 µg/mL lay within 90 to 100%. Further, in assay [1], the mortality at 12.5 µg/mL was 90 to 100%; the mortality at 50 µg/mL is 90 to 100%; the mortality at 500 µg/mL fell in the range of 90 to 100%; the “Activity against armyworm, further screening (in words)” value is on record as “excellent activity”.

In the case of `CCCN(CCC)C(=O)c1cc(Cl)cc(Cl)c1N(C)C(=O)c1cc(Br)nn1-c1ncccc1Cl` [Compound 16, N-[2,4-dichloro-6-[(dipropylamino)carbonyl]phenyl]-N-methyl-1-(3-chloro-2-pyridinyl)-3-bromo-1H-pyrazole-5-carboxamide], in the assay with Aphis fabae, the mortality at 12.5 µg/mL lay in the range of 90 to 100%, the mortality at 50 µg/mL fell in the range of 90 to 100%, the mortality at 200 µg/mL lay within 90 to 100% and the mortality at 500 µg/mL fell in the range of 90 to 100%. Also, in assay [1], the mortality at 50 µg/mL was in the range of 90 to 100% and the mortality at 500 µg/mL was 90 to 100%.

As for `CCN(C(=O)c1cc(Br)nn1-c1ncccc1Cl)c1c(Cl)cc(Cl)cc1C(=O)N(C)C` [Compound 17, N-[2,4-dichloro-6-[(dimethylamino)carbonyl]phenyl]-N-ethyl-1-(3-chloro-2-pyridinyl)-3-bromo-1H-pyrazole-5-carboxamide], in the assay with Aphis fabae, the mortality at 12.5 µg/mL was in the range of 90 to 100%, the mortality at 50 µg/mL fell in the range of 90 to 100%, the mortality at 200 µg/mL lay in the range of 90 to 100% and the mortality at 500 µg/mL lay within 90 to 100%. In assay [1], the mortality at 12.5 µg/mL lay in the range of 90 to 100%, the mortality at 50 µg/mL was 90 to 100% and the mortality at 500 µg/mL fell in the range of 90 to 100%.

Regarding `CCN(C)C(=O)c1cc(Cl)cc(Cl)c1N(CC)C(=O)c1cc(Br)nn1-c1ncccc1Cl` [Compound 18, N-[2,4-dichloro-6-[(methyl(ethyl)amino)carbonyl]phenyl]-N-ethyl-1-(3-chloro-2-pyridinyl)-3-bromo-1H-pyrazole-5-carboxamide], in the assay on Aphis fabae, the mortality at 12.5 µg/mL was 90 to 100%, the mortality at 50 µg/mL lay in the range of 90 to 100%, the mortality at 200 µg/mL fell in the range of 90 to 100% and the mortality at 500 µg/mL fell in the range of 90 to 100%. Besides, in assay [1], the mortality at 50 µg/mL lay within 90 to 100% and the mortality at 500 µg/mL is 90 to 100%.

Take `CCCN(C(=O)c1cc(Br)nn1-c1ncccc1Cl)c1c(Cl)cc(Cl)cc1C(=O)N(C)C` [Compound 19, N-[2,4-dichloro-6-[(dimethylamino)carbonyl]phenyl]-N-propyl-1-(3-chloro-2-pyridinyl)-3-bromo-1H-pyrazole-5-carboxamide]: in the assay on Aphis fabae, the mortality at 12.5 µg/mL was in the range of 90 to 100%, the mortality at 50 µg/mL lay in the range of 90 to 100%, the mortality at 200 µg/mL fell in the range of 90 to 100% and the mortality at 500 µg/mL fell in the range of 90 to 100%. Further, in assay [1], the mortality at 50 µg/mL was 90 to 100% and the mortality at 500 µg/mL is 90 to 100%.

As for `CCCN(C)C(=O)c1cc(Cl)cc(Cl)c1N(CCC)C(=O)c1cc(Br)nn1-c1ncccc1Cl` [Compound 20, N-[2,4-dichloro-6-[(methyl(propyl)amino)carbonyl]phenyl]-N-propyl-1-(3-chloro-2-pyridinyl)-3-bromo-1H-pyrazole-5-carboxamide], in the assay on Aphis fabae, the mortality at 200 µg/mL was 90 to 100% and the mortality at 500 µg/mL lay in the range of 90 to 100%. In assay [1], the mortality at 50 µg/mL lay in the range of 90 to 100% and the mortality at 500 µg/mL lay in the range of 90 to 100%.

Turning to `CN(C)C(=S)c1cc(Cl)cc(Cl)c1N(C)C(=O)c1cc(Br)nn1-c1ncccc1Cl` [Compound 21, N-[2,4-dichloro-6-[(dimethylamino)thioxomethyl]phenyl]-N-methyl-1-(3-chloro-2-pyridinyl)-3-bromo-1H-pyrazole-5-carboxamide], in the assay with Aphis fabae, the mortality at 12.5 µg/mL was in the range of 90 to 100%, the mortality at 50 µg/mL was 90 to 100%, the mortality at 200 µg/mL is 90 to 100% and the mortality at 500 µg/mL is 90 to 100%. Besides, in assay [1], the mortality at 50 µg/mL lay within 90 to 100% and the mortality at 500 µg/mL was 90 to 100%.

On to `CC(C)N(C)C(=S)c1cc(Cl)cc(Cl)c1N(C)C(=O)c1cc(Br)nn1-c1ncccc1Cl` [Compound 22, N-[2,4-dichloro-6-[(methyl(isopropyl)amino)thioxomethyl]phenyl]-N-methyl-1-(3-chloro-2-pyridinyl)-3-bromo-1H-pyrazole-5-carboxamide], for which, in the assay with Aphis fabae, the mortality at 12.5 µg/mL lay in the range of 90 to 100%, the mortality at 50 µg/mL fell in the range of 90 to 100%, the mortality at 200 µg/mL is 90 to 100% and the mortality at 500 µg/mL was 90 to 100%. In assay [1], the mortality at 12.5 µg/mL lay within 90 to 100%, the mortality at 50 µg/mL lay within 90 to 100% and the mortality at 500 µg/mL is 90 to 100%.

In the case of `CCN(CC)C(=S)c1cc(Cl)cc(Cl)c1N(C)C(=O)c1cc(Br)nn1-c1ncccc1Cl` [Compound 23, N-[2,4-dichloro-6-[(diethylamino)thioxomethyl]phenyl]-N-methyl-1-(3-chloro-2-pyridinyl)-3-bromo-1H-pyrazole-5-carboxamide], in the assay with Aphis fabae, the mortality at 200 µg/mL lay within 90 to 100% and the mortality at 500 µg/mL is 90 to 100%. In assay [1], the mortality at 12.5 µg/mL was 90 to 100%, the mortality at 50 µg/mL was in the range of 90 to 100% and the mortality at 500 µg/mL was in the range of 90 to 100%.

For `CCN(CC)C(=S)c1cc(Cl)cc(Cl)c1N(C)C(=S)c1cc(Br)nn1-c1ncccc1Cl` [Compound 24, N-[2,4-dichloro-6-[(diethylamino)thioxomethyl]phenyl]-N-methyl-1-(3-chloro-2-pyridinyl)-3-bromo-1H-pyrazole-5-carbothioamide], in the assay on Aphis fabae, the mortality at 200 µg/mL was in the range of 90 to 100% and the mortality at 500 µg/mL fell in the range of 90 to 100%. In addition, in assay [1], the mortality at 50 µg/mL was in the range of 90 to 100% and the mortality at 500 µg/mL was 90 to 100%.

Consider `O=[N+]([O-])/N=C1\NCCN1Cc1ccc(Cl)nc1` [imidacloprid, reference compound], for which the LC50 in the assay with Aphis fabae (read-out: LC50 against Aphis fabae) was below 1 µg/mL.
